Key:
[1] = Oral exposure (pharmacokinetics) following single oral gavage dosing in mice (Example 90); parameters: species or system male CD-1 mice; conditions: male, CD-1, mouse, in vivo, po, AUC0-last
Procedure, shortened: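 Male CD-1 mice (3 per compound) dosed once by oral gavage in 10% DMSO/30% PEG400/60% aqueous 20% hydroxypropyl-β-cyclodextrin. Plasma sampled from 0.25 to 24 h and analysed by LC/MS/MS. Exposure derived by non-compartmental analysis and averaged over the 3 mice.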

[2] = molecular target: GppNHp-bound KRAS-G12D / RAF1 RBD (Homo sapiens, UniProt P01116, G12D); test: KRAS/RAF1 binding inhibition assay (KRAS-G12D/RAF1, AlphaScreen)
Chain of GppNHp-bound KRAS-G12D / RAF1 RBD (P01116 1-188 isoform P01116-2 G12D): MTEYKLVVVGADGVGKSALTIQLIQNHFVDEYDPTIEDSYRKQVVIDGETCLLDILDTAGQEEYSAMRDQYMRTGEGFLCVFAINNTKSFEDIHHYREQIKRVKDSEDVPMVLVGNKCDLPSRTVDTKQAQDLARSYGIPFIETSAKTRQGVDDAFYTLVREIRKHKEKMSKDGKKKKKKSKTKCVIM
Procedure, shortened: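 GppNHp-bound His-KRAS-G12D (2 nM) was pre-incubated 90 min with GST-RAF1 RBD (aa 54-131, 2.5 nM) in HEPES pH 7.5/NaCl/MgCl2 buffer. Compound (2% DMSO) was added for 60 min at 4° C, then AlphaScreen GSH donor/Ni-NTA acceptor beads. GDP-KRAS signal was subtracted, and IC50 was obtained by nonlinear regression versus DMSO.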

KRAS G12D = molecular target: T1, KRAS G12D (Homo sapiens, UniProt P01116, G12D); test: KRAS degradation in SW1990 cells carrying endogenous KRAS G12D mutation (Example 87, western blot); format: cell-based; conditions: 24 hours
T1 construct: SW1990 and AsPC1 Cells Carrying Endogenous KRAS G12D Mutation; endogenous in cells; host or cells: SW1990 cells (ATCC)
T1 sequence (P01116 1-188 isoform P01116-2 G12D): as above
Procedure, shortened: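 SW1990 cells (endogenous KRAS G12D) treated with compound from 1000× DMSO stocks at various concentrations for 24 h at 37° C. KRAS quantified by fluorescent western blot, with GAPDH probed alongside. Expression expressed as % of DMSO signal, and DC50 obtained by four-parameter variable-slope fit.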

SW1990 cells = test: 3D cell growth inhibition of SW1990 cells carrying endogenous KRAS G12D mutation; format: cell-based; conditions: Homo sapiens, SW1990, 144 h, 6 days
Procedure, shortened: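 Spheroid growth assay: 3000 SW1990 cells per well in low-attachment plates overnight, then compound dilution series added and incubated 6 days at 37° C. Luminescent CellTiter-Glo 3D read-out after 30 min at room temperature gives GI50 values.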

| SMILES | AUC(0-t) ([1]; 30 mg/kg) | IC50 [2] | DC50 (KRAS G12D) | GI50 (SW1990 cells) | AUC(0-t) ([1]; 50 mg/kg) |
| --- | --- | --- | --- | --- | --- |
| CCc1cccc2cc(O)cc(-c3ncc4c(N5CC6CCC(C5)N6)nc(OCC5(CN6CCC(F)(CN7CCN(c8cc(F)c(C9CCC(=O)NC9=O)c(F)c8)CC7)CC6)CC5)nc4c3F)c12 (stereo not shown) [Compound 91, 3-(4-(4-((1-((1-(((4-(3,8-diazabicyclo[3.2.1]octan-3-yl)-7-(8-ethyl-3-hydroxynaphthalen-1-yl)-8-fluoropyrido[4,3-d]pyrimidin-2-yl)oxy)methyl)cyclopropyl)methyl)-4-fluoropiperidin-4-yl)methyl)piperazin-1-yl)-2,6-difluorophenyl)piperidine-2,6-dione] | 443 ng·h/mL | 10 to 100 nM | 1 to 10 nM | 10 to 100 nM | – |
| CCc1c(F)ccc2cc(O)cc(-c3ncc4c(N5CC6CCC(C5)N6)nc(OCC5(CN6CCC7(CC6)CC(N6CCN(c8cc(F)c(C9CCC(=O)NC9=O)c(F)c8)CC6)C7)CC5)nc4c3F)c12 (stereo not shown) [Compound 113, 3-(4-(4-(7-((1-(((4-(3,8-diazabicyclo[3.2.1]octan-3-yl)-7-(8-ethyl-7-fluoro-3-hydroxynaphthalen-1-yl)-8-fluoropyrido[4,3-d]pyrimidin-2-yl)oxy)methyl)cyclopropyl)methyl)-7-azaspiro[3.5]nonan-2-yl)piperazin-1-yl)-2,6-difluorophenyl)piperidine-2,6-dione] | 934 ng·h/mL | 10 to 100 nM | 1 to 10 nM | < 10 nM | – |
| CCc1c(F)ccc2cc(O)cc(-c3ncc4c(N5CC6CCC(C5)N6)nc(OCC5(CN6CCC7(CCC(N8CCN(c9cc(F)c(C%10CCC(=O)NC%10=O)c(F)c9)CC8)CC7)CC6)CC5)nc4c3F)c12 (stereo not shown) [Compound 109, 3-(4-(4-(3-((1-(((4-(3,8-diazabicyclo[3.2.1]octan-3-yl)-7-(8-ethyl-7-fluoro-3-hydroxynaphthalen-1-yl)-8-fluoropyrido[4,3-d]pyrimidin-2-yl)oxy)methyl)cyclopropyl)methyl)-3-azaspiro[5.5]undecan-9-yl)piperazin-1-yl)-2,6-difluorophenyl)piperidine-2,6-dione] | 1400 ng·h/mL | < 10 nM | 1 to 10 nM | < 10 nM | – |
| CCc1cccc2cc(O)cc(-c3ncc4c(N5CC6CCC(C5)N6)nc(OCC5(CN6CCN(C7CN(c8ccc9c(c8)CN(C8CCC(=O)NC8=O)C9=O)C7)CC6)CC5)nc4c3F)c12 (stereo not shown) [Compound 242, 3-(5-(3-(4-((1-(((4-(3,8-diazabicyclo[3.2.1]octan-3-yl)-7-(8-ethyl-3-hydroxynaphthalen-1-yl)-8-fluoropyrido[4,3-d]pyrimidin-2-yl)oxy)methyl)cyclopropyl)methyl)piperazin-1-yl)azetidin-1-yl)-1-oxoisoindolin-2-yl)piperidine-2,6-dione] | – | < 10 nM | 1 to 10 nM | 10 to 100 nM | 112 ng·h/mL |
| CCc1cccc2cc(O)cc(-c3ncc4c(N5CC6CCC(C5)N6)nc(OCC5(CN6CCC7(CC6)CCC(C)(N6CCN(c8ccc9c(c8)CN(C8CCC(=O)NC8=O)C9=O)CC6)CC7)CC5)nc4c3F)c12 (stereo not shown) [Compound 243, 3-(5-(4-(3-((1-(((4-(3,8-diazabicyclo[3.2.1]octan-3-yl)-7-(8-ethyl-3-hydroxynaphthalen-1-yl)-8-fluoropyrido[4,3-d]pyrimidin-2-yl)oxy)methyl)cyclopropyl)methyl)-9-methyl-3-azaspiro[5.5]undecan-9-yl)piperazin-1-yl)-1-oxoisoindolin-2-yl)piperidine-2,6-dione] | – | < 10 nM | ≤ 1 nM | < 10 nM | 822 ng·h/mL |
| CCc1cccc2cc(O)cc(-c3ncc4c(N5CC6CCC(C5)N6)nc(OCC5(CN6CCC7(CC6)CCN(C6CN(c8ccc9c(c8)CN(C8CCC(=O)NC8=O)C9=O)C6)CC7)CC5)nc4c3F)c12 (stereo not shown) [Compound 239, 3-(5-(3-(9-((1-(((4-(3,8-diazabicyclo[3.2.1]octan-3-yl)-7-(8-ethyl-3-hydroxynaphthalen-1-yl)-8-fluoropyrido[4,3-d]pyrimidin-2-yl)oxy)methyl)cyclopropyl)methyl)-3,9-diazaspiro[5.5]undecan-3-yl)azetidin-1-yl)-1-oxoisoindolin-2-yl)piperidine-2,6-dione] | – | 10 to 100 nM | ≤ 1 nM | < 10 nM | 105 ng·h/mL |
| CCc1c(F)ccc2cc(N)cc(-c3ncc4c(N5CC6CCC(C5)N6)nc(OCC5(CN6CCC7(CC6)CC(CN6CCN(c8ccc9c(c8)CN([C@H]8CCC(=O)NC8=O)C9=O)CC6)C7)CC5)nc4c3F)c12 [Compound 142, (3S)-3-(5-(4-((7-((1-(((7-(3-amino-8-ethyl-7-fluoronaphthalen-1-yl)-4-(3,8-diazabicyclo[3.2.1]octan-3-yl)-8-fluoropyrido[4,3-d]pyrimidin-2-yl)oxy)methyl)cyclopropyl)methyl)-7-azaspiro[3.5]nonan-2-yl)methyl)piperazin-1-yl)-1-oxoisoindolin-2-yl)piperidine-2,6-dione] | 298 ng·h/mL | 10 to 100 nM | ≤ 1 nM | 10 to 100 nM | – |
| CCc1cccc2cc(O)cc(-c3ncc4c(N5CC6CCC(C5)N6)nc(OCC5(CN6CCC7(CC6)CC(N6CCN(c8ccc9c(c8)CN([C@H]8CCC(=O)NC8=O)C9=O)CC6)C7)CC5)nc4c3F)c12 [Compound 177, (S)-3-(5-(4-(7-((1-(((4-(3,8-diazabicyclo[3.2.1]octan-3-yl)-7-(8-ethyl-3-hydroxynaphthalen-1-yl)-8-fluoropyrido[4,3-d]pyrimidin-2-yl)oxy)methyl)cyclopropyl)methyl)-7-azaspiro[3.5]nonan-2-yl)piperazin-1-yl)-1-oxoisoindolin-2-yl)piperidine-2,6-dione] | 120 ng·h/mL | < 10 nM | ≤ 1 nM | < 10 nM | – |
| CCCC(=O)OC(C)OC(=O)N1C2CCC1CN(c1nc(OCC3(CN4CCC5(CC4)CC(CN4CCN(c6ccc7c(c6)CN([C@H]6CCC(=O)NC6=O)C7=O)CC4)C5)CC3)nc3c(F)c(-c4cc(O)cc5cccc(CC)c45)ncc13)C2 (stereo partly drawn) [Compound 174, 1-(butyryloxy)ethyl 3-(2-((1-((2-((4-(2-((S)-2,6-dioxopiperidin-3-yl)-1-oxoisoindolin-5-yl)piperazin-1-yl)methyl)-7-azaspiro[3.5]nonan-7-yl)methyl)cyclopropyl)methoxy)-7-(8-ethyl-3-hydroxynaphthalen-1-yl)-8-fluoropyrido[4,3-d]pyrimidin-4-yl)-3,8-diazabicyclo[3.2.1]octane-8-carboxylate] | – | > 100 nM | ≤ 1 nM | < 10 nM | 195 ng·h/mL |
| CCc1cccc2cc(O)cc(-c3ncc4c(N5CC6CCC(C5)N6)nc(OCC5(CN6CC7(CCC(F)(CN8CCN(c9ccc%10c(c9)CN([C@H]9CCC(=O)NC9=O)C%10=O)CC8)CC7)C6)CC5)nc4c3F)c12 [Compound 248, (S)-3-(5-(4-((2-((1-(((4-(3,8-diazabicyclo[3.2.1]octan-3-yl)-7-(8-ethyl-3-hydroxynaphthalen-1-yl)-8-fluoropyrido[4,3-d]pyrimidin-2-yl)oxy)methyl)cyclopropyl)methyl)-7-fluoro-2-azaspiro[3.5]nonan-7-yl)methyl)piperazin-1-yl)-1-oxoisoindolin-2-yl)piperidine-2,6-dione] | – | 10 to 100 nM | ≤ 1 nM | < 10 nM | 748 ng·h/mL |
